The values that follow come from patent publication US11806354B2 (priority 2017, dated 2023).

Data set [1] in a line: Dissolution testing of monolayer meloxicam/rizatriptan tablet in acidic medium (Example 4). It counts as physicochemical. Particulars: 0.01 N HCl. The source says: The inclusion complex was the same as the inclusion complex of Example 3.
The conditions of data set [2]: human beings, 15 mg intramuscular dose; cited from earlier work.
How the values of data set [3] were obtained: The effect of varying amounts of potassium carbonate (K2CO3) and sodium bicarbonate (NaHCO3) on the pH of acidic media was tested. The acidic media was chosen to simulate gastric conditions. K2CO3 or NaHCO3 was added to 50 mL of a 0.01 N HCl solution (pH 2). The pH of the solution was measured after addition of the K2CO3 or NaHCO3. Deionized water (240 mL) was then added to the mixture and pH was measured again.

The next data set deals with migraine patients. Briefly: Phase 3 placebo- and active-controlled trial, acute treatment of moderate and severe migraine (Example 11). The format is in vivo, human.
Setting [4] is: monolayer tablet of Example 4, 0 min, 75 RPM, 37° C.
[5] abbreviates: monolayer tablet of Example 4, 15 min.
[6] abbreviates: monolayer tablet of Example 4, 30 min.
Where [7] appears, read: monolayer tablet of Example 4, 45 min.
[8] abbreviates: monolayer tablet of Example 4, 60 min.
[9] abbreviates: monolayer tablet of Example 4, 90 min.
Where [10] appears, read: monolayer tablet of Example 4, 120 min.

Each structure is given as a SMILES string. Where two headings read alike, the source gives them in different places.

Text for migraine patients: Exclusion criteria included cluster headaches or other types of migraines, chronic daily headache (≥15 non-migraine headache days per month), history of significant cardiovascular disease, and uncontrolled hypertension.

With `Cc1cnc(NC(=O)C2=C(O)c3ccccc3S(=O)(=O)N2C)s1` [Meloxicam], the percent dissolved is given as 0% in data set [1] (setting [4]); 79% in data set [1] (setting [5]); 92% in data set [1] (setting [6]); 93% in data set [1] (setting [7]); 93% in data set [1] (setting [8]); 93% in data set [1] (setting [9]). The molecule further registered a percent dissolved in data set [1] (setting [10]) of 94%. In data set [2], the AUC0-24 of meloxicam entry was “about 27 μg·hr/mL”.

Regarding `O=C([O-])O.[Na+]` [NaHCO3, sodium bicarbonate], the pH in data set [3] (300 mg added to 50 mL 0.01 N HCl) was 5.90; in data set [3] (750 mg added to 50 mL 0.01 N HCl) it was 8.30; in data set [3] (1000 mg, 0.01 N HCl + 240 mL water) it was 8.60.

Turning to `CN(C)CCc1c[nH]c2ccc(Cn3cncn3)cc12` [Rizatriptan], in data set [1] (setting [4]), the percent dissolved is reported as 0%. In data set [1] (setting [5]), this molecule yielded a percent dissolved of 89%. The percent dissolved in data set [1] (setting [6]) was determined as 102%. In data set [1] (setting [7]), this molecule gave a percent dissolved of 103%. In data set [1] (setting [8]), this molecule had a percent dissolved of 103%. The molecule further registered a percent dissolved in data set [1] (setting [9]) of 103%. This molecule also displayed a percent dissolved in data set [1] (setting [10]) of 103%. The “patients experiencing relapse of pain” value in the data set with migraine patients (48-hour period after dosing) was 45.2%. For the same molecule, in the data set on migraine patients (2 hours to 48 hours), the “percentage of patients with sustained pain freedom” value was found to be 8.8%. Also, the “probability of experiencing pain relief” value with migraine patients (24 hours after taking) is reported as “approximately 60%”. For the same molecule, in the data set with migraine patients (in vivo), the “Any Treatment-Emergent Adverse Event, number of subjects” value was found to be 67; the “Dizziness, % of subjects” value amounted to 2.1%; the “Dizziness, number of subjects” value was determined as 9; the “Nausea, % of subjects” value is 4.8%. In addition, in the data set with migraine patients (in vivo), the “Nausea, number of subjects” value is listed as 21; the “Somnolence, % of subjects” value worked out at 2.1%; the “Somnolence, number of subjects” value worked out at 9; the “median time to pain relief” value was determined as 4 h.
